In patent publication US6635629B2, “3-nitrogen-6,7-dioxygen steroids and uses related thereto” (Inflazyme Pharmaceuticals Ltd., priority 2000, dated 2003):

Legend:
[1] = system: rat mast cell line (RBL-2H3); assay: Antigen-induced release of hexosaminidase from a rat mast cell line (RBL-2H3); format: cell-based; settings: inhibition of DNP-HSA antigen-induced hexosaminidase release; tested at 0.3, 3, 10 and 30 μM; read-out: Hex IC50
Description: The anti-allergic effects of a compound of the present invention was evaluated by measuring its effect on antigen-induced secretion of hexosaminidase from a passively sensitized rat mast cell line. The ability of a test compound to inhibit the release of mast cell granule contents, e.g., histamine and hexosaminidase, is indicative of the anti-allergy and/or anti-asthma activity of the compound. Hexosaminidase is released from the mast cell granule along with histamine and other mediators during antigen challenge. The test is performed as follows.
RBL-2H3 cells are grown in culture and passively sensitized for 1 hour at 37° C. to dinitrophenol (DNP) using anti-human-DNP (IgE). Cells are incubated with test compound for 30 minutes at 37° C. and stimulated with 0.5 μg/ml DNP-HSA (antigen) for 30 minutes. Aliquots of the supernatant are removed and used to measure the amount of hexosaminidase released during challenge with the antigen. […] The effect of each test compound is determined as a percentage of the antigen-induced response (minus background release) obtained in the presence of DMSO alone. These values are used to determine the degrees of inhibition of antigen-induced hexosaminidase release from the cells.

Jurkat clone E6.1 cells = assay: Antigen-induced (anti-CD3 mAb) calcium flux in Jurkat clone E6.1 cells; format: cell-based; settings: for Calcium (% inhibition at 20 μM): anti-CD3 mAb 4 μg/mL, Fura 2AM
Description: Elevation of cytoplasmic calcium concentration is a common and crucial event which follows the activation of many types of cell surface receptors. Increases in intracellular calcium that occur following agonist activation of inositol lipid hydrolysis are the results of calcium release from the endoplasmic reticulum and the influx of calcium through the plasma membrane. Increases in cytosolic calcium concentration are involved in many important cellular responses in the inflammatory process including adhesion, motility, gene expression, proliferation, and degranulation. Changes in intracellular calcium centrations can affect both short and long term cellular responses. An assay method to evaluate a test compound's impact on calcium flux is provided as follows.
The resulting supernatants are discarded and each pellet is washed in 10 mL HBSS. Cell suspensions are accumulated and centrifuged for 5 minutes at 900 RPM to form a cell pellet. The resulting supernatant is discarded and the pellet is resuspended in HBSS at 1×10^7 cells/mL. The cell suspension is transferred to a 20 mm petri dish and incubated at 37° C., 5% CO2 for 20 minutes.
One volume of Fura 2AM is mixed to one volume of detergent Pluronic F127. Cells are labeled with 4 μL of probe solution to each mL of cell suspension. The petri dish is wrapped in aluminum foil to protect from light and placed on a plate shaker for 30 minutes at room temperature.
The following steps are done in the laminar flow hood with the fluorescent lights turned off. The petri dish is removed from the shaker and the labeled cell suspension is transferred to a 15 mL conical tube and washed twice with HBSS as above. The cell pellet is resuspended in 12 mL HBSS and left wrapped in foil for 30 minutes at room temperature. The labeled cell suspension is aliquoted (100 μL/well) into a Dynex 96 well white opaque tissue culture plate. […] Selected compounds were tested for dose related activity. Test samples and activator (anti—CD3 mAb at final concentration of 4 μg/mL, PharMingen) are added manually (50 μL), such that the minimum time to acquire the first data point after stimulation is approximately 30 seconds. The calcium influx response to anti-CD3 mAb is measured as an “end point” assay. The entire plate is read in 100 seconds using a kinetic of 1 second per well.
The plate is read before the addition of anti-CD3 to monitor non-specific effect of samples/drugs. Fluorescence emission is measured at 510 nm with excitation alternating between 340 and 380 every second using an excitation/emission filter pair. Data from these dual wavelengths are represented as a ratio of 2 excitations wavelengths. This ratio is independent of intracellular dye and cell concentrations, enabling real comparison between experiments.

[2] = system: sensitized Brown Norway rats; assay: Ovalbumin-induced accumulation of inflammatory cells in lung lavage fluid of sensitized Brown Norway rats; format: in vivo, rat; settings: 1 mg/kg/day for 4 days, p.o., corn oil vehicle; relative to control animals
Description: The ability of a compound to inhibit the allergen-induced accumulation of inflammatory cells such as eosinophils and neutrophils in the lavage fluid obtained from sensitized animals is indicative of that compound's anti-asthma activity. […] The test is conducted as follows.
Male Brown Norway rats are sensitized to ovalbumin by single intraperitoneal injection of 1 mg ovalbumin adsorbed to 100 mg A(OH)3 (alum) in 1 ml sterile saline (saline control rats receive only sterile saline) on day 1, and allowed to sensitize until day 21. […] Rats are challenged with 0.5% ovalbumin in saline generated using a Devillbis nebulizer for 60 min on day 21.
Forty-eight hrs after challenge, animals are sacrificed with an overdose of intraperitoneally-delivered sodium pentobarbitol and the lungs are lavaged with cold 2×7 ml phosphate buffered saline. The recovered lavage fluid is placed on ice. The bronchoalveolar lavage fluid is centrifuged and the supernatant removed. The pellet is resuspended in phosphate buffered saline at 4° C. Cytospins are prepared and stained for differentiation and enumeration of cell types.
Test compound was administered in 300 μl corn oil (Tables 7 and 8) or water (Table 9), which were used as vehicles. Control animals received 300 μl corn oil or water alone, i.e., no drug. […] A negative value in Table 7, 8, or 9 indicates an exacerbation of the effect over the control animal.

Row | SMILES | IC50 [1] | Calcium (% inhibition at 20 μM) (Jurkat clone E6.1 cells) | % inhibition of eosinophils [2] | % inhibition of lymphocytes [2] | % inhibition of neutrophils [2] | IC50 (Jurkat clone E6.1 cells; dose response activity examined)
1 | CC=C1CCC2C3C(O)C(O)C4CC(NCCCCC)CCC4(C)C3CCC12C.Cl (stereo not shown) [Compound 115] | 11.1 µM | 40.0% |  |  |  | 
2 | CC=C1CCC2C3C(O)C(O)C4CC(Nc5ccc(S(N)(=O)=O)cc5)CCC4(C)C3CCC12C.Cl (stereo not shown) [Compound 127] | 10.1 µM | 29.4% |  |  |  | 
3 | C=C1CCC2C3C(CC[C@]12C)[C@@]1(C)CC[C@@H](NS(=O)(=O)c2ccccc2)CC1[C@@H](O)[C@@H]3O (stereo partly shown) [Compound 134] | 16.7 µM | 25.1% |  |  |  | 
4 | Cc1cccc(CNC2CCC3(C)C(C2)C(O)C(O)C2C4=C(CCC23)C(C)(C)CC4)c1.Cl (stereo not shown) [Compound 140] | 10.2 µM | 21.5% |  |  |  | 
5 | CC=C1CCC2C3C(O)C(O)C4CC(NCCCCCO)CCC4(C)C3CCC12C.Cl (stereo not shown) [Compound 123] | 16.7 µM | 12.8% |  |  |  | 
6 | C=C1CCC2C3C(O)C(O)C4CC(NCc5cccc(Oc6ccccc6)c5)CCC4(C)C3CCC12C.CC(=O)O (stereo not shown) [Compound 105] | 22.5 µM | 10.2% |  |  |  | 
7 | C/C=C1/CCC2C3C(CC[C@]12C)[C@@]1(C)CCC(NC)CC1[C@@H](O)[C@@H]3O (stereo partly shown) [Compound 113] | 9.8 µM | 45.0% |  |  |  | 
8 | CC=C1CCC2C3C(O)C(O)C4CC(NCCN(C)C)CCC4(C)C3CCC12C.Cl.Cl (stereo not shown) [Compound 120] | 9.1 µM | 44.0% |  |  |  | 
9 | CC=C1CCC2C3C(O)C(O)C4CC(Nc5ccc(O)cc5)CCC4(C)C3CCC12C.Cl (stereo not shown) [Compound 126] | 9.7 µM | 45.0% |  |  |  | 
10 | C=C1CCC2C3C(O)C(O)C4CC(NCc5cccnc5)CCC4(C)C3CCC12C.Cl.Cl (stereo not shown) [Compound 107] | 17.2 µM | 11.6% | −122% | −28% | 23% | 
11 | C=C1CCC2C3C(O)C(O)C4CC(NCc5ccccc5OC)CCC4(C)C3CCC12C.CC(=O)O (stereo not shown) [Compound 103] | 11.1 µM | 23.7% |  |  |  | 
12 | C=C1CCC2C3C(CC[C@]12C)[C@@]1(C)CC[C@@H](NC(=O)NCCC)CC1[C@@H](O)[C@@H]3O (stereo partly shown) [Compound 138] | 15 µM | 9.0% | −52% | 33% | 35% | 
13 | CC=C1CCC2C3C(O)C(O)C4CC(NCCC)CCC4(C)C3CCC12C.Cl (stereo not shown) [Compound 114] |  | 37.9% |  |  |  | 
14 | CC=C1CCC2C3C(O)C(O)C4CC(NCCNCCO)CCC4(C)C3CCC12C.Cl.Cl (stereo not shown) [Compound 124] |  | 21.0% | −55% | −26% | −76% | 
15 | CCC1(C)CCC2=C1CCC1C2C(O)C(O)C2CC(NCc3ccccc3)CCC21C.Cl (stereo not shown) [Compound 147] | 18.1 µM | 36.3% | 40% | 36% | 58% | 
16 | CCC1(C)CCC2=C1CCC1C2C(O)C(O)C2CC(Nc3cccc(C(F)(F)F)c3)CCC21C.Cl (mixture of isomers) [Compound 145] | 22 µM | −0.2% |  |  |  | 
17 | C=C1CCC2C3C(CC[C@]12C)[C@@]1(C)CC[C@@H](NC(C)=O)CC1[C@@H](O)[C@@H]3O (stereo partly shown) [Compound 131] |  |  | 16% | 21% | 57% | 
18 | CC=C1CCC2C3C(O)C(O)C4CC(NC5CCCC5)CCC4(C)C3CCC12C (stereo not shown) [Compound 116] | 9.6 µM |  |  |  |  | 

Row | SMILES | IC50 [1] | Calcium (% inhibition at 20 μM) (Jurkat clone E6.1 cells) | % inhibition of eosinophils [2] | % inhibition of lymphocytes [2] | % inhibition of neutrophils [2] | IC50 (Jurkat clone E6.1 cells; dose response activity examined)
19 | CC(=O)O.CC=C1CCC2C3C(O)C(O)C4CC(N5CCCC5)CCC4(C)C3CCC12C (stereo not shown) [Compound 118] | 11 µM | 41.8% |  |  |  | 
20 | C=C1CCC2C3C(CC[C@]12C)[C@@]1(C)CCC(N)CC1[C@@H](O)[C@@H]3O (stereo partly shown) [Compound 54] |  | 19.8% | −82% | −7% | −19% | 
21 | C=C1CCC2C3C(CC[C@]12C)[C@@]1(C)CC[C@@H](NC(=O)c2ccccc2)CC1[C@@H](O)[C@@H]3O (stereo partly shown) [Compound 132] | 10 µM | 19.6% |  |  |  | 
22 | C=C1CCC2C3C(O)C(O)C4CC(NCc5ccc(OC(F)(F)F)cc5)CCC4(C)C3CCC12C.CC(=O)O (stereo not shown) [Compound 104] | 9.5 µM | 30.3% |  |  |  | 
23 | C=C1CCC2C3C(O)C(O)C4CC(NCc5cccc([N+](=O)[O-])c5)CCC4(C)C3CCC12C (stereo not shown) [Compound 106] | 8.8 µM | 8.1% |  |  |  | 
24 | C=C1CCC2C3C(CC[C@]12C)[C@@]1(C)CC[C@@H](NS(=O)(=O)C(C)C)CC1[C@@H](O)[C@@H]3O (stereo partly shown) [Compound 133] |  |  | −43% | 28% | 40% | 
25 | C=C1CCC2C3C(O)C(O)C4CC(NCc5cccc(C(F)(F)F)c5)CCC4(C)C3CCC12C.CC(=O)O (stereo not shown) [Compound 102] | 10 µM | 9.5% |  |  |  | 
26 | CC=C1CCC2C3C(O)C(O)C4CC(NCCO)CCC4(C)C3CCC12C.Cl (stereo not shown) [Compound 122] | 12.3 µM | 31.4% |  |  |  | 
27 | CC(=O)O.CC=C1CCC2C3C(O)C(O)C4CC(NC5CCCCC5)CCC4(C)C3CCC12C (stereo not shown) [Compound 117] | 6.6 µM | 42.2% |  |  |  | 
28 | CCC1(C)CCC2=C1CCC1C2C(O)C(O)C2CC(Nc3ccccc3)CCC21C.Cl (mixture of isomers) [Compound 144] | 6.9 µM | 13.0% |  |  |  | 
29 | C=C1CCC2C3C(CC[C@]12C)[C@@]1(C)CCC(N)CC1[C@@H](OC)[C@@H]3OC (stereo partly shown) [Compound 80] | 10.7 µM | 7.4% |  |  |  | 
30 | CC=C1CCC2C3C(O)C(O)C4CC(NCCNCCC)CCC4(C)C3CCC12C.Cl.Cl (stereo not shown) [Compound 119] |  | 54.5% |  |  |  | ≤ 10 µM
31 | C=C1CCC2C3C(O)C(O)C4CC(NCc5ccccc5F)CCC4(C)C3CCC12C.CC(=O)O (stereo not shown) [Compound 101] |  | 16.3% |  |  |  | 
32 | CC(=O)O.CC=C1CCC2C3C(O)C(O)C4CC(N5CCNCC5)CCC4(C)C3CCC12C (stereo not shown) [Compound 121] | 14.4 µM | 42.4% |  |  |  | 
33 | CC=C1CCC2C3C(O)C(O)C4CC(N5CCOCC5)CCC4(C)C3CCC12C.Cl (stereo not shown) [Compound 111] | 9.3 µM | 53.1% |  |  |  | 
34 | CC=C1CCC2C3C(O)C(O)C4CC(Nc5cccc(C)c5)CCC4(C)C3CCC12C.Cl (stereo not shown) [Compound 125] | 39.4 µM | 5.7% |  |  |  | 
35 | COC1C(OC)C2CC(N)CCC2(C)C2CCC3=C(CCC3(C)C)C12.Cl (stereo not shown) [Compound 148] | 29.2 µM | 6.6% |  |  |  | 
